“Also recorded” adds a separate entry of the source. Read-outs that look alike come from different tables or passages of the source.
Experiments:
hCoV-OC43 [1] = assay: hCoV-OC43 replication and spread in MRCS cells, N protein immunofluorescence, high-content imaging; format: cell-based
Description: FIG. 2. Inhibiting METTL3 in lung fibroblasts suppresses hCOV-OC43 replication. (A) MRCS cells infected with hCOV-OC43 [MOI=0.001] were treated with vehicle (DMSO), control compound (M3c), active METTL3 inhibitor (M3i) or (+) control antiviral remdesivir (rem). Viral spread through the culture was determined by immunofluorescence using an antibody to the hCoV-OC43 nucleocapsid protein (green stain). (B) Quantitation of N protein positive cells from (A) (n=3; **P<0.005; *P<0.05 by t-test for M3c vs M3i). Suppression of viral replication by M3i is evident from >0.5 mM and higher. (C) Test compounds (3 mM) have no significant impact on MRCS viability (n=3) after 48 h of treatment.
To evaluate how METTL3 enzymatic activity impacted coronavirus reproduction, we compared the activity of a specific METTL3 chemical inhibitor (Tzelepis et al., 2019), here termed M3i, to a structurally related control compound M3c unable to inhibit METTL3. […] To measure coronavirus replication, we developed an assay (FIG. 2A) that uses indirect immunofluorescence to detect coronavirus nucleocapsid protein (N) to monitor and quantify virus reproduction and spread using a high-content imaging platform (Cellinsight CX7 LZR). […] In FIG. 2C, the bars from left to right indicate DMSO, M3c, M3i, and remdesivir. […] In FIG. 3A, the bars from left to right represent DMSO, M3c and M3i. In FIG. 3B, the bars represent Not Treated, M3c and M3i. […] It is believed this requirement will extend to other RNA viruses, including coronaviruses with pandemic potential. The data further provide proof in principle that the cellular m^6A modification machinery represents an unexpected host target for anti-coronavirus drug targeting.

SARS-CoV-2 [2] = assay: microbe, parasite or virus in culture; format: cell-based
hCoV-OC43 [3] = assay: hCoV-OC43 infectious virus production from MRCS cells by TCID50; format: cell-based; conditions: for hCoV-OC43 infectious virus production: TCID50 after 48h, compared to equivalent concentrations of M3c or DMSO; for efficacy compared with remdesivir: hCoV-OC43 infectious virus production
Description: FIG. 8. Inhibiting METTL3 in lung fibroblasts limits hCOV-OC43 infectious virus production. MRCS cells infected with hCOV-OC43 [MOI=0.001] were treated with vehicle (DMSO), control compound (M3c) or active METTL3 inhibitor (M3i2 in A or M3i in B) at the indicated concentration. After 48h, the amount of infectious virus released was quantified by TCID50. N=3. **P<0.01; *P<0.05 by student's t-test.
In FIGS. 7B and 7C, each set of bars from left to right signifies DMSO, M3c and M3i2. […] To determine how METTL3 chemical inhibitors influenced virus production, we quantified and compared infectious virus produced by infected cell cultures treated with vehicle, a control compound (M3c), the two different METTL3 chemical inhibitors (M3i, M3i2) and remdesivir.

SARS-CoV-2 [4] = assay: SARS-CoV-2 infectious virus titers from A549+ACE2 cells by plaque assay; format: cell-based; conditions: MOI=0.1, 30 μM
Description: FIG. 11. Inhibition of METTL3 activity suppresses β-coronavirus replication in A549+ACE2 cells. […] The percentage of cells infected was established by green fluorescence and normalized to infection of nontreated cells. (B) The viability of A549+ACE2 cells in the presence of concentrations of each compound used in the infection assays shown in A was assessed using a commercial ATP quantitation assay. Cells were maintained at 37° C. in culture medium containing diluted compound for 48 h prior to lysis. Each experiment was conducted three times with internal duplicates, normalized to DMSO-treated cells processed in parallel and plotted as the mean±SEM. (C) Representative montages showing wells from the infections quantified in A that were treated with 30 μM M3c or M3i2 and infected with icSARS-CoV-2-mNG. (D) Infectious virus titers from A549+ACE2 cells infected with icSARS-CoV-2-mNG at MOI=0.1 and treated with 30 μM either M3c or M3i2 was determined by plaque assay.
This concordance further validates the high-content imaging assay as a measure of viral replication and release. Thus, a selective small molecule METTL3 inhibitor effectively suppresses the productive replication of human β-coronavirus, pandemic SARS-CoV-2 in a further human lung cell line.

MRCS cells = assay: MRCS cell viability (ATP, Celltiterglo2.0); format: cell-based, human
Description: To determine viability, cells were seeded to opaque white 96-well plates. The next day, cells were drug- or vehicle-treated and incubated as in infection experiments (for example, treated-MRC-5 cells were placed for 48 h at 33° C.). ATP levels were then assayed using Celltiterglo2.0 (Promega G9242) according to the manufacturer's instructions. Luciferase signal was read on a Perkin Elmer Envision 2103 multilabel reader, and 24-h 1 μM staurosporine treatment used as a positive control for assay sensitivity.

A549+ACE2 cells = conditions: 48 h, FIG. 11B
METTL3 = METTL3 (Homo sapiens, UniProt Q86U44); conditions: Tzelepis et al., 2019; cited from earlier work
Sequence of METTL3 (Q9HCE5 whole entry): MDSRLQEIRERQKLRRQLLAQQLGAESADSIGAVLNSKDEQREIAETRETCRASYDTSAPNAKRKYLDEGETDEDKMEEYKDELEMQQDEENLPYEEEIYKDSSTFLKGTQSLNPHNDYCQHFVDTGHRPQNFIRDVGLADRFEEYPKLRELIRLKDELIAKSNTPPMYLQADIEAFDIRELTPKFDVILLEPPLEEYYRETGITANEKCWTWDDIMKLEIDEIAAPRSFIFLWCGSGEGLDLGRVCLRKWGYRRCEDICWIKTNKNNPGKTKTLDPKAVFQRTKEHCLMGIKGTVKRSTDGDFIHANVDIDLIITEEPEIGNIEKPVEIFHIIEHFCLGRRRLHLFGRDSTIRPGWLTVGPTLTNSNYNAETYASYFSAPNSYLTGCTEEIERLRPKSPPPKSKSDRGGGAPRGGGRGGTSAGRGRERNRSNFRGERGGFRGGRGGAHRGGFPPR
Sequence of METTL3 (Q86U44 whole entry): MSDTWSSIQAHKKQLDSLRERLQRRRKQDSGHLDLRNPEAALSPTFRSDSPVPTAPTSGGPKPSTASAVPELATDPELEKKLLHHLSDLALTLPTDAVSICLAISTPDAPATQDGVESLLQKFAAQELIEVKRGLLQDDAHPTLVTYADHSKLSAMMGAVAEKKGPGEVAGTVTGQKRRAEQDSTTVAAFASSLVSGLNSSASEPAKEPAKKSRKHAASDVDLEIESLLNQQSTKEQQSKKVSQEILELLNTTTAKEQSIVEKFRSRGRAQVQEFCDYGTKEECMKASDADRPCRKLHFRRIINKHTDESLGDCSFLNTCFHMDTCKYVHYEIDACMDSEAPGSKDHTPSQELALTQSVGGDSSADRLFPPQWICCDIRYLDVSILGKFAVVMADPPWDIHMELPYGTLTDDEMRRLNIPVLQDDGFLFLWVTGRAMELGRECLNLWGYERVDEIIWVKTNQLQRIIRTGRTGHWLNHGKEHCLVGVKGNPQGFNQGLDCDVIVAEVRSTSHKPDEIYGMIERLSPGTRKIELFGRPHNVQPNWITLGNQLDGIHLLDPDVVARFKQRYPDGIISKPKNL

viral RNA = assay: Viral RNA accumulation by RT-qPCR; format: cell-based; conditions: RT-qPCR (not shown)
viral dsRNA = assay: Viral dsRNA accumulation, immunofluorescence with J2 dsRNA-specific antibody; format: cell-based
SARS-CoV-2 [5] = format: cell-based; conditions: FIG. 3A
[6] = test system: coronavirus nucleocapsid protein (N); format: cell-based; conditions: infected MRCS cells, 24 h treatment / 24 hpi

AGGAGCCAGCCAAGAAAUCAA[dT][dT] [METTL3-2]
hCoV-OC43 replication and spread (N protein positive cells) after METTL3 depletion (hCoV-OC43 [1]; cultures treated with M3c): not
hCoV-OC43 replication and spread (N protein positive cells) after METTL3 depletion (hCoV-OC43 [1]; cultures treated with M3i): increased

GAAACGCGGCGUUUGGGCA[dT][dT] [YTHDF1 siRNA #3]
reduction of the percentage of infected (mNeonGreen-positive) cells (SARS-CoV-2 [2]): 79%

O=C(NCc1cn2cc(CNCC3CCCCC3)ccc2n1)c1cc(=O)n2ccccc2n1 [M3i2]
hCoV-OC43 reproduction and spread through MRCS cells (hCoV-OC43 [1]; 10 μM, compared to control compound M3c): inhibited
hCoV-OC43 infectious virus production (hCoV-OC43 [3]): reduced
efficacy compared with remdesivir (hCoV-OC43 [3]; FIG. 8): neither were as efficacious as remdesivir
reduction of SARS-CoV-2 infectious virus production (SARS-CoV-2 [4]): 300 fold
effects on cell viability (MRCS cells; 10 μM, MRCS cells (FIG. 7C)): without any discernible effects
IC50 (SARS-CoV-2 [2]; Severe acute respiratory syndrome coronavirus 2, A549+ACE2 cells, read-out: IC50 against SARS-CoV-2): 16.8 µM
icSARS-CoV-2-mNG-infected A549+ACE2 cells (SARS-CoV-2 [2]; higher concentrations, compared with DMSO or M3c): clearly reduced
viability of A549+ACE2 cells (A549+ACE2 cells): Minor differences

GUAACGGAGACCAUCAUUU[dT][dT] [YTHDF1 siRNA #1]
reduction of the percentage of infected (mNeonGreen-positive) cells (SARS-CoV-2 [2]): 68%

GUCAAUGGGAGUGGGCAUU[dT][dT] [YTHDF1 siRNA #2]
reduction of the percentage of infected (mNeonGreen-positive) cells (SARS-CoV-2 [2]; siRNA 72 h before infection, MOI=0.1, 48 h, compared with control nonsilencing siRNA): 23%

CC1(C)CCN(Cc2ccc3nc(Cn4cc(-c5cc(Br)cc6[nH]ncc56)nn4)cn3c2)CC1 [M3i]
concentration at which hCoV-OC43 replication and spread is strongly suppressed (hCoV-OC43 [1]; MRCS cells): ≥ 0.5 µM
hCoV-OC43 reproduction and spread in MRCS cells (hCoV-OC43 [1]; compared to the inactive compound M3c, FIG. 9): reduced
selectivity for METTL3 (METTL3): highly selective
reduction of hCoV-OC43 replication compared with M3i2 (hCoV-OC43 [3]; FIG. 8): to a greater extent than M3i2
hCoV-OC43 infectious virus production (hCoV-OC43 [3]): reduced
efficacy compared with remdesivir (hCoV-OC43 [3]; FIG. 8): neither were as efficacious as remdesivir
accumulation of viral RNA (viral RNA): significant reduction
viral dsRNA accumulation (viral dsRNA): blocks; also recorded: significant reduction
cell viability of siRNA-treated cultures (MRCS cells; MRCS cells, siRNA-treated, FIG. 9C): did not detectably change
effects on MRCS cell viability (MRCS cells; over the dosage range tested (FIG. 2C)): negligible detectable effects
impact on viability of Calu-3 cell (Calu-3 cells; concentrations of 3 mM or lower): minimal impact
effects on Calu-3 cell viability (Calu-3 cells; over the dosage range tested (FIG. 3B)): negligible detectable effects
SARS-CoV-2 replication in Calu-3 cells (SARS-CoV-2 [5]): significantly reduced
N accumulation / N expression [6]: reduced

CACCUACGGACAGCUCAGU[dT][dT] [siRNA #4]
reduction of the percentage of infected (mNeonGreen-positive) cells (SARS-CoV-2 [2]): 89%

CUGCAAGUAUGUUCACUAUGA[dT][dT [METTL3-1]
hCoV-OC43 replication and spread (N protein positive cells) after METTL3 depletion (hCoV-OC43 [1]; cultures treated with M3c): not
hCoV-OC43 replication and spread (N protein positive cells) after METTL3 depletion (hCoV-OC43 [1]; cultures treated with M3i): increased

From US11944608B2, “Targeting RNA viruses using inhibitors of METTL3” (priority 2020, dated 2024)
